# Measurements: the supplement of paper PMC10307832
# Assays:
# Experiment in all cases: relative viability (nuclei count vs DMSO), 5 days (fraction); higher = more cells survive
# [1] = system: NCI-H1734
# In short: (§1)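 Relative viability is defined as nuclei in treated wells over nuclei in vehicle wells. Duplicate plates were run and medians reported. Lung cancer cell lines in 1536-well plates were dosed by pin tool one day after seeding, with one drug or with a fixed anchor-drug dose plus five library-drug doses (not always all listed) in √10 steps, and nuclei were counted after 5 days.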
# [2] = system: HOP-62
# In short: as §1
# [3] = system: EMC-BAC-2
# In short: as §1
# [4] = system: NCI-H2342
# In short: as §1
# [5] = system: CAL-12T
# In short: as §1
# [6] = system: NCI-H2023
# In short: as §1
# [7] = system: NCI-H2009
# In short: as §1
# [8] = system: NCI-H650
# In short: as §1
# [9] = system: NCI-H1944
# In short: as §1
# [10] = system: NCI-H1650
# In short: as §1
# [11] = system: H3255
# In short: as §1
# [12] = system: BEN
# In short: as §1
# [13] = system: HCC-15
# In short: as §1
# [14] = system: NCI-H441
# In short: as §1
# [15] = system: 201T
# In short: as §1
# [16] = system: NCI-H522
# In short: as §1
# [17] = system: SW 900
# In short: as §1
# [18] = system: NCI-H2405
# In short: as §1
# [19] = system: ChaGo-K-1
# In short: as §1
# [20] = system: NCI-H1395
# In short: as §1
# [21] = system: LU99A
# In short: as §1
# [22] = system: NCI-H2347
# In short: as §1
# [23] = system: NCI-H358
# In short: as §1
# [24] = system: SK-LU-1
# In short: as §1
# [25] = system: NCI-H23
# In short: as §1
compound,measurement,setting,value
Nc1cccc2c1CN(C1CCC(=O)NC1=O)C2=O (stereo not given) [Lenalidomide] + N=C(N)NC(=N)NCCc1ccccc1 [Phenformin] (partner 250 µM),relative viability,[1]; first compound 0.253 µM,0.39
same,relative viability,[1]; first compound 0.8 µM,0.413
same,relative viability,[1]; first compound 2.53 µM,0.425
same,relative viability,[1]; first compound 8 µM,0.34
same,relative viability,[2]; first compound 0.253 µM,0.611
same,relative viability,[2]; first compound 0.8 µM,0.733
same,relative viability,[2]; first compound 2.53 µM,0.736
same,relative viability,[2]; first compound 8 µM,0.705
same,relative viability,[3]; first compound 0.253 µM,0.527
same,relative viability,[3]; first compound 0.8 µM,0.525
same,relative viability,[3]; first compound 2.53 µM,0.598
same,relative viability,[3]; first compound 8 µM,0.459
same,relative viability,[4]; first compound 0.253 µM,0.637
same,relative viability,[4]; first compound 0.8 µM,0.551
same,relative viability,[4]; first compound 2.53 µM,0.628
same,relative viability,[4]; first compound 8 µM,0.505
same,relative viability,[5]; first compound 0.253 µM,0.548
same,relative viability,[5]; first compound 0.8 µM,0.633
same,relative viability,[5]; first compound 2.53 µM,0.639
same,relative viability,[5]; first compound 8 µM,0.647
same,relative viability,[6]; first compound 0.253 µM,0.405
same,relative viability,[6]; first compound 0.8 µM,0.522
same,relative viability,[6]; first compound 2.53 µM,0.431
same,relative viability,[6]; first compound 8 µM,0.407
same,relative viability,[7]; first compound 0.253 µM,0.454
same,relative viability,[7]; first compound 0.8 µM,0.517
same,relative viability,[7]; first compound 2.53 µM,0.518
same,relative viability,[7]; first compound 8 µM,0.528
same,relative viability,[8]; first compound 0.253 µM,0.528
same,relative viability,[8]; first compound 2.53 µM,0.523
same,relative viability,[8]; first compound 8 µM,0.42
same,relative viability,[9]; first compound 0.253 µM,0.213
same,relative viability,[9]; first compound 0.8 µM,0.191
same,relative viability,[9]; first compound 2.53 µM,0.223
same,relative viability,[9]; first compound 8 µM,0.174
same,relative viability,[10]; first compound 0.8 µM,0.376
same,relative viability,[10]; first compound 2.53 µM,0.554
same,relative viability,[10]; first compound 8 µM,0.483
same,relative viability,[11]; first compound 0.253 µM,0.331
same,relative viability,[11]; first compound 0.8 µM,0.38
same,relative viability,[11]; first compound 2.53 µM,0.329
same,relative viability,[11]; first compound 8 µM,0.386
same,relative viability,[12]; first compound 0.253 µM,0.287
same,relative viability,[12]; first compound 0.8 µM,0.268
same,relative viability,[12]; first compound 2.53 µM,0.285
same,relative viability,[12]; first compound 8 µM,0.222
same,relative viability,[13]; first compound 0.253 µM,0.474
same,relative viability,[13]; first compound 0.8 µM,0.489
same,relative viability,[13]; first compound 2.53 µM,0.53
same,relative viability,[13]; first compound 8 µM,0.482
same,relative viability,[14]; first compound 0.253 µM,0.827
same,relative viability,[14]; first compound 0.8 µM,0.958
same,relative viability,[14]; first compound 2.53 µM,0.949
same,relative viability,[14]; first compound 8 µM,0.613
same,relative viability,[15]; first compound 0.253 µM,0.448
same,relative viability,[15]; first compound 2.53 µM,0.444
same,relative viability,[15]; first compound 8 µM,0.404
same,relative viability,[16]; first compound 0.253 µM,0.645
same,relative viability,[16]; first compound 2.53 µM,0.643
same,relative viability,[16]; first compound 8 µM,0.573
same,relative viability,[17]; first compound 0.253 µM,0.583
same,relative viability,[17]; first compound 2.53 µM,0.747
same,relative viability,[17]; first compound 8 µM,0.688
same,relative viability,[18]; first compound 0.253 µM,0.382
same,relative viability,[18]; first compound 0.8 µM,0.416
same,relative viability,[18]; first compound 2.53 µM,0.416
same,relative viability,[18]; first compound 8 µM,0.351
same,relative viability,[19]; first compound 0.253 µM,0.497
same,relative viability,[19]; first compound 0.8 µM,0.459
same,relative viability,[19]; first compound 2.53 µM,0.636
same,relative viability,[19]; first compound 8 µM,0.478
same,relative viability,[20]; first compound 0.253 µM,0.436
same,relative viability,[20]; first compound 0.8 µM,0.403
same,relative viability,[20]; first compound 2.53 µM,0.508
same,relative viability,[20]; first compound 8 µM,0.419
same,relative viability,[21]; first compound 0.253 µM,0.76
same,relative viability,[21]; first compound 0.8 µM,0.875
same,relative viability,[21]; first compound 2.53 µM,0.96
same,relative viability,[21]; first compound 8 µM,0.564
same,relative viability,[22]; first compound 0.253 µM,0.409
same,relative viability,[22]; first compound 0.8 µM,0.488
same,relative viability,[22]; first compound 2.53 µM,0.497
same,relative viability,[22]; first compound 8 µM,0.206
same,relative viability,[23]; first compound 0.253 µM,0.338
same,relative viability,[23]; first compound 0.8 µM,0.371
same,relative viability,[23]; first compound 2.53 µM,0.405
same,relative viability,[23]; first compound 8 µM,0.359
same,relative viability,[24]; first compound 0.253 µM,0.539
same,relative viability,[24]; first compound 0.8 µM,0.595
same,relative viability,[24]; first compound 2.53 µM,0.693
same,relative viability,[24]; first compound 8 µM,0.472
same,relative viability,[25]; first compound 0.253 µM,0.733
same,relative viability,[25]; first compound 0.8 µM,0.695
same,relative viability,[25]; first compound 2.53 µM,0.889
same,relative viability,[25]; first compound 8 µM,0.729
